6 molecules from ChEMBL document CHEMBL1201862, “PubChem BioAssay data set” (2004) can be followed below.

In general, EC50 refers to the midpoint of the concentration-response curve. Usually IC50 stands for the concentration that gives 50% inhibition. In general, AC50 refers to the concentration giving half of the maximal activity seen.

Calls of active or inactive are those of the source. Some results are limits rather than exact numbers.

Assay [1] can be described thus: inhibitors of intracellular T. cruzi replication, confirmation, NIH3T3 host cells, beta-gal luminescence (AID 2044).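 Also: intracellular parasites grown in NIH/3T3 mouse fibroblasts as host cells; luminescent beta-galactosidase reporter signal from transgenic T. cruzi replicating inside host cells; inhibitors lower the luminescence signal.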 In kind it is functional, cell-based.
Assay [2] in a line: cytotoxicity toward NIH3T3 fibroblasts, dose response, counter-screen, cell-based, ATP luminescence, mouse fibroblasts (AID 2010).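 Also: cells exposed to compound for about 90 hours before reading.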 The class given is functional. For orientation: Counterscreens check selectivity or assay interference.
The subject of assay [3] is HEK293. Put plainly: SAR Analysis of small molecule inhibitors of T-cell specific antigen receptor-induced NF-kB activation in a HEK-293T cell line using a luminescence assay - Set 2. [Related pubchem assays (depositor defined):AID435003, AID435012, AID489026]. The class given is functional, cell-based. The following applies: Homo sapiens.
The nature of assay [4]: inhibitors of firefly luciferase expression or activity, dose response, H4 neuroglioma cells, luminescence (AID 1990). The class given is functional, cell-based.
In assay [5] the target is Beta-2 adrenergic receptor (Homo sapiens, UniProt P07550). Kind of assay: beta2AR agonists driving receptor internalization, dose response, cell-based, FAP fluorogen, flow cytometry, cherry pick 1 (AID 588763). The class given is functional.
Assay [6] has as its system HEK293. Kind of assay: cytotoxicity in HEK293T NF-kB-Luc cells, SAR follow-up, cytotoxicity control for NF-kB activator project, cell-based, resazurin fluorescence (AID 493251). The following applies: Homo sapiens. In kind it is functional.
The target of assay [7] is T1, Microphthalmia-associated transcription factor (Homo sapiens, UniProt O75030).
T1 sequence (O75030 whole entry): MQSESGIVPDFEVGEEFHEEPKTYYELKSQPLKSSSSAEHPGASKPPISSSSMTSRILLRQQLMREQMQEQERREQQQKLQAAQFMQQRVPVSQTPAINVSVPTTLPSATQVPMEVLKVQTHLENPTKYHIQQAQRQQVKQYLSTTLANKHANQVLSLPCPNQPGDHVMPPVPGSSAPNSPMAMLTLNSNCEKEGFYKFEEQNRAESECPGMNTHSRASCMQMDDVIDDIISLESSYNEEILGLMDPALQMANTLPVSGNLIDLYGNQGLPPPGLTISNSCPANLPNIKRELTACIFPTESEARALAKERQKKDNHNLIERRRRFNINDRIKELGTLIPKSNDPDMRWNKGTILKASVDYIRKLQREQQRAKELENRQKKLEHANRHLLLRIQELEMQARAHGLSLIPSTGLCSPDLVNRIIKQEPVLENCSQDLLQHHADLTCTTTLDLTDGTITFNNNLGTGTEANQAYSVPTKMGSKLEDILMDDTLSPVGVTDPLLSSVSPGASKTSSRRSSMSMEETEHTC
Kind of assay: TRPM1 promoter luciferase signal decrease, dose response, MITF inhibitor project, cell-based, SK-MEL-5, cherry-picked, set 3 (AID 493073).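 Also: SK-MEL-5 melanoma cells with luciferase driven by the MITF target TRPM1 promoter.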 In kind it is functional.

Assay [8] can be described thus: inhibitors of SNCA 5'UTR-driven reporter translation, confirmation, H4 neuroglioma cells, luminescence (AID 1988). The class given is functional, cell-based.
Assay [9] can be described thus: Luminescence Cell-Based Dose Response HTS to Identify Inhibitors of 5'UTR Stem-Loop Driven Prion Protein mRNA Translation in H4 Neuroglioblastoma Cells. [Related pubchem assays: 1827 (Project Summary), 1813 (Primary HTS)]. In kind it is functional.
The test system of another assay is Jurkat. Put plainly: SAR Analysis of small molecule inhibitors of T-cell specific antigen receptor-induced NF-kB activation in a Jurkat cell line using a luminescence assay - Set 2. [Related pubchem assays (depositor defined):AID435003, AID435012, AID465]. The following applies: Homo sapiens. In kind it is functional, cell-based.
A further assay relates to Escherichia coli. Put plainly: microbe, parasite or virus in culture.
Assay [10] addresses T2, Heat shock factor protein 1 (Mus musculus, UniProt P38532).
T2 sequence (P38532 whole entry): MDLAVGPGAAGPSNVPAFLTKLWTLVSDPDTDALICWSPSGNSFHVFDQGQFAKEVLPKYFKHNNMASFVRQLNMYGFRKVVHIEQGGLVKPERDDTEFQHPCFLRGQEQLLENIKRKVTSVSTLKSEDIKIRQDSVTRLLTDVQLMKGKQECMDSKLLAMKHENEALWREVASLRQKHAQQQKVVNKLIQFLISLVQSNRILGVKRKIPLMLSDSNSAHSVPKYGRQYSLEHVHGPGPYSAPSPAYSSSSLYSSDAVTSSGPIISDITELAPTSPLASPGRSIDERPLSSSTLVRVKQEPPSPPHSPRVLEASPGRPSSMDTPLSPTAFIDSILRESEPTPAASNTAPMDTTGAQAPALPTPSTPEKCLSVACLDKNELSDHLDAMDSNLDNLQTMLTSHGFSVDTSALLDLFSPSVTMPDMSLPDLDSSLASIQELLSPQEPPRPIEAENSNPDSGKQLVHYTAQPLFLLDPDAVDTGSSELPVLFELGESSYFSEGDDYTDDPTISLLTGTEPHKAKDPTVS
Kind of assay: inhibition of MG132-induced HSE-luciferase signal, confirmation, cell-based, NIH3T3, luminescence, dose retest (AID 2382).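 Also: NIH3T3 fibroblasts with HSF1-driven luciferase reporter stressed by proteasome inhibitor MG132; luminescence from HSF1-driven luciferase expression after 8 hours of MG132 stress.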 The class given is functional.

Assay [11] has as its system HEK293. Put plainly: inhibitors of LMP1-driven NF-kB reporter, dose response, cell-based, HEK293, luciferase, cherry-pick (AID 588343). In kind it is functional. The following applies: Homo sapiens.
The target of the next assay is Mu-type opioid receptor (Homo sapiens, UniProt P35372). Put plainly: Counterscreen for agonists of heterodimerization of the mu 1 (OPRM1) and delta 1 (OPRD1) opioid receptors: Luminescence-based cell-based high throughput dose response assay to identify agonists of OPRM1 homodimerization. In kind it is functional.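 Also: U2OS cells expressing OPRM1 and beta-arrestin as split beta-galactosidase partners.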
The target in assay [12] is 5-hydroxytryptamine receptor 5A (Homo sapiens, UniProt P47898). Kind of assay: Counterscreen for agonists of OPRM1-OPRD1 heterodimerization: luminescence-based cell-based high throughput dose response assay to identify agonists of 5-hydroxytryptamine (serotonin) 5A receptor (HTR5A). [Related pubchem assays (depositor defined):AID504326, AID504355, AID504692, AID504904, AID504905]. The class given is functional.

Assay [13] in a line: A549 cell cytotoxicity, dose response, cytotoxicity control, plate reader, cherry-pick, antagonist series (AID 743412). The class given is functional, cell-based.
A short description of assay [14]: LGR2 antagonists, dose response, cell-based, HEK293, CRE-luciferase reporter, cherry pick, set 2 (AID 743343).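 Also: transfected cells were stimulated with diluted bursicon conditioned medium after compound addition.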 In kind it is functional.
A short description of assay [15]: HEK293 cell cytotoxicity, dose response, cytotoxicity control, plate reader, cherry-picked samples (AID 743446). The class given is functional, cell-based.
A short description of assay [16]: HepG2 cell cytotoxicity, dose response, cytotoxicity control, plate reader, cherry-pick, antagonist series (AID 743416). The class given is functional, cell-based.
Assay [17] concerns the target Delta-type opioid receptor (Homo sapiens, UniProt P41143). Kind of assay: Counterscreen for agonists of heterodimerization of the mu 1 (OPRM1) and delta 1 (OPRD1) opioid receptors: Luminescence-based cell-based high throughput dose response assay to identify agonists of OPRD1 homodimerization. [Related pubchem assays (depositor defined):AID504326, AID504355, AID504692, AID504904, AID504905]. In kind it is functional.

Assay [18] is described as follows: MC4R antagonists, dose response, counter-screen for LGR2 antagonist project, cell-based, plate reader, cherry pick (AID 743444).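 Also: transfected HEK 293 cells stimulated with alpha-MSH peptide; potency of inhibitors of the alpha-MSH evoked signal.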 In kind it is functional.
For assay [19], the target named is Dual specificity tyrosine-phosphorylation-regulated kinase 1A (Rattus norvegicus, UniProt Q63470). The class given is biochemical, Homo sapiens.
The target in assay [20] is Dual specificity protein kinase CLK1 (Homo sapiens, UniProt P49759). Put plainly: CLK1 kinase inhibitors, off-target check, dose response, selectivity assay for Dyrk1A inhibitor project, biochemical, cherry-picked samples (AID 588811).
For assay [21], the target named is Glyceraldehyde-3-phosphate dehydrogenase (Homo sapiens, UniProt P04406).
The target in assay [22] is T3, Alkaline phosphatase, tissue-nonspecific isozyme (Homo sapiens, UniProt P05186).
T3 sequence (P05186 whole entry): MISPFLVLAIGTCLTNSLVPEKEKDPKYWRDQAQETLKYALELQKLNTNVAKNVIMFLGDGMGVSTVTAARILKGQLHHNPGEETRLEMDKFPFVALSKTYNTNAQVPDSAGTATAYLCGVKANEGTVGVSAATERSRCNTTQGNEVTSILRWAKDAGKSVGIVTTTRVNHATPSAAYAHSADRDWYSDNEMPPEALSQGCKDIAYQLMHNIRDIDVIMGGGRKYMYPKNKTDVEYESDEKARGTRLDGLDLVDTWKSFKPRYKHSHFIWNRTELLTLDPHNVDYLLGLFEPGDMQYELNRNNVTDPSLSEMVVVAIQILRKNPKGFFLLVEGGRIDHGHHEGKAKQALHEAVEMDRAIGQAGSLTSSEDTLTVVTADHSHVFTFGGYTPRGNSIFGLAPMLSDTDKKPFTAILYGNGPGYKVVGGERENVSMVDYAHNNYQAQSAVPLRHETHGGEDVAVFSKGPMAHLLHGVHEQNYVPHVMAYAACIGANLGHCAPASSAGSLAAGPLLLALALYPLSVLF
Kind of assay: human TNAP enzyme inhibitors, SAR follow-up, biochemical, luminescent, dose response (AID 1056).

Dual specificity protein kinase CLK1, sequence (P49759 whole entry): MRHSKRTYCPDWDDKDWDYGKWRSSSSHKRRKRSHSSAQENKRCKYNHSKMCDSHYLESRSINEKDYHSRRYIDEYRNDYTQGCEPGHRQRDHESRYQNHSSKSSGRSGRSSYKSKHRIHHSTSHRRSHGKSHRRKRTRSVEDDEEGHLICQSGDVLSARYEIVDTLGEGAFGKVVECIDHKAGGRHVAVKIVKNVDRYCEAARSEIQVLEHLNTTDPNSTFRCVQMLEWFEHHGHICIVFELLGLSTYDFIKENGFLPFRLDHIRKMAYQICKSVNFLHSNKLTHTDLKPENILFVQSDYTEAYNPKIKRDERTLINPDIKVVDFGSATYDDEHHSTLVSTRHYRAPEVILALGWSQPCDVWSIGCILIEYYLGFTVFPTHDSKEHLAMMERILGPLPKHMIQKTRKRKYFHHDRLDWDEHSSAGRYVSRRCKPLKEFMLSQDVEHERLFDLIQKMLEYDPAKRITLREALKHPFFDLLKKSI
Mu-type opioid receptor, sequence (P35372 whole entry): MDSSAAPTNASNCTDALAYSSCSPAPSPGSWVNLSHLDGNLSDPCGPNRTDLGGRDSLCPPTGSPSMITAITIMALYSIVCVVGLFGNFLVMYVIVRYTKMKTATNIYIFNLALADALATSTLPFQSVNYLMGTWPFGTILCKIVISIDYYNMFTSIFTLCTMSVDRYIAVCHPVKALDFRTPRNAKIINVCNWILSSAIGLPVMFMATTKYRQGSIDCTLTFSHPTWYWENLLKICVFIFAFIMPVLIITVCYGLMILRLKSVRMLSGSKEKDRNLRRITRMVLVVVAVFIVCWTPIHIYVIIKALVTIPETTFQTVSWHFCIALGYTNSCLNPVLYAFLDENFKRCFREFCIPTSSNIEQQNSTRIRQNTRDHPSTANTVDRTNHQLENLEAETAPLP
Beta-2 adrenergic receptor, sequence (P07550 whole entry): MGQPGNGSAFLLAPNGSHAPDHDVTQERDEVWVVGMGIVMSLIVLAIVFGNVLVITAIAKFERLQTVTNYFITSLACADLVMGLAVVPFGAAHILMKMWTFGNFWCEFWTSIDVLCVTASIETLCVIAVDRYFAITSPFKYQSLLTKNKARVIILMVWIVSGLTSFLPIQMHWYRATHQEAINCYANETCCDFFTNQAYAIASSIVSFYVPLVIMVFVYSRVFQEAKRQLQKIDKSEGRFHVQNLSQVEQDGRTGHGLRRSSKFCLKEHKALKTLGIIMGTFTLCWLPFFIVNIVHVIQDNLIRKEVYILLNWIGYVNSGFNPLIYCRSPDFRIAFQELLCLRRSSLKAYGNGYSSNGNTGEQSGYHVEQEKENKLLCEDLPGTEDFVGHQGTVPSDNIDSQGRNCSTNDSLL
Glyceraldehyde-3-phosphate dehydrogenase, sequence (P04406 whole entry): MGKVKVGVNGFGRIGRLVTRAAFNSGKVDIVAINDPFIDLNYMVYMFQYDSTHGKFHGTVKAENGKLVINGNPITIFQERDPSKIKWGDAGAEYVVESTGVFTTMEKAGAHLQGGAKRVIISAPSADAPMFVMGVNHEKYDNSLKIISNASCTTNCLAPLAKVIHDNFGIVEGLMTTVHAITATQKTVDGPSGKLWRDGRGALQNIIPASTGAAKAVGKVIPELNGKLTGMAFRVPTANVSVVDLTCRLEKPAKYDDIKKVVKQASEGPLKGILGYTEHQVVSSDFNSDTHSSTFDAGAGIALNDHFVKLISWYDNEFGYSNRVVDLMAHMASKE
5-hydroxytryptamine receptor 5A, sequence (P47898 whole entry): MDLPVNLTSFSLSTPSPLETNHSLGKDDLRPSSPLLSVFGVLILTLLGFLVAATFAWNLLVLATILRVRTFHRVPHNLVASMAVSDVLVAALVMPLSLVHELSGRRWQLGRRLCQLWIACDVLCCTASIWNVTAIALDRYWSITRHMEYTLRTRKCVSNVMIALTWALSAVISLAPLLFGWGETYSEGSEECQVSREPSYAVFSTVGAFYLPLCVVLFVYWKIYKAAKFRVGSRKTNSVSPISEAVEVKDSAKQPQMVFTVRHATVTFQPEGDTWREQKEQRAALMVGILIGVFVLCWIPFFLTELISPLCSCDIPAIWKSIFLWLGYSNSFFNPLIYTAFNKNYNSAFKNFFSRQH
Delta-type opioid receptor, sequence (P41143 whole entry): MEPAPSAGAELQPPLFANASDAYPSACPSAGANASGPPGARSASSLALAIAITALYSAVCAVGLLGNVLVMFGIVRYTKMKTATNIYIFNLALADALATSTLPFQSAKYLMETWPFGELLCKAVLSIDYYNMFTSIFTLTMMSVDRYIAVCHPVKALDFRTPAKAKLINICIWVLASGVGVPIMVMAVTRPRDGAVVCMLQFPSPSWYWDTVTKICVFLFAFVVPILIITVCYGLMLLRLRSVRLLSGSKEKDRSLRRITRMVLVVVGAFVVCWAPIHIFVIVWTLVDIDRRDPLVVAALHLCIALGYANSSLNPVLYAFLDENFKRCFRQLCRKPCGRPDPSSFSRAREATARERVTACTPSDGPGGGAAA

With `CCN1CCN(c2ccc(NC(=O)c3ccc([N+](=O)[O-])o3)cc2Cl)CC1`, the EC50 is > 30 µM (not active) in assay [1]; 4.34 µM (active) in [2]; > 120 µM (not active) in assay [4]; 6.22 µM (active) in assay [5]; 8.46 µM (active) in [8]; > 120 µM (not active) in assay [9]. For the same molecule, the IC50 with HEK293 [3] is 16.5 µM (active); in the assay with HEK293 [6] it was 49.2 µM (inactive); in the assay with Jurkat, 15.8 µM (active). The half-maximal activity concentration (AC50) in assay [7] is 9.54 µM (active).
On to `COc1ccccc1NS(=O)(=O)c1ccc2nc(S)oc2c1`, for which the AC50 in the assay with Escherichia coli is > 380 µM (inactive).
As for `Cc1ccc(-n2cc(C(=O)c3ccccc3O)cn2)cc1`, the EC50 in [10] is < 0.16 µM (active). Also, in the assay on HEK293 [11], the concentration at half-maximal activity (AC50) is 0.725 µM (active).
As for `CC(C)CC(=O)NC(c1ccc(C(C)C)cc1)c1ccc2cccnc2c1O` (stereo not drawn), the IC50 with HEK293 [3] is 7.36 µM (active); with HEK293 [6], 18 µM (active); with Jurkat it was 2.49 µM (active).
Regarding `CC(C)n1ncc2c(C(=O)Nc3cccc(C#N)c3)cc(C3CC3)nc21`, the EC50 is 18 µM (inactive) at Mu-type opioid receptor, > 92.5 µM (inactive) in assay [12] and > 92.5 µM (inactive) in [17]. Also, the AC50 in assay [13] is 39.1 µM (active); in [14], 1.46 µM (active); in assay [15] it was 24.3 µM (active); in [16], 21.8 µM (active); in [18], 0.789 µM (active).
With `COc1ccc2c(c1)CCc1c-2n[nH]c1C(=O)O`, the AC50 in assay [19] is 7.28 µM (active); in assay [20], 16.9 µM (active). Besides, the IC50 in [21] was > 10 µM (inconclusive); in assay [22], 3.71 µM (active).
